Target: urease (from jack bean) (Canavalia ensiformis, UniProt P07374)
Assay: indophenol
Format: biochemical

Chain of urease (from jack bean) (P07374 whole entry, looked up): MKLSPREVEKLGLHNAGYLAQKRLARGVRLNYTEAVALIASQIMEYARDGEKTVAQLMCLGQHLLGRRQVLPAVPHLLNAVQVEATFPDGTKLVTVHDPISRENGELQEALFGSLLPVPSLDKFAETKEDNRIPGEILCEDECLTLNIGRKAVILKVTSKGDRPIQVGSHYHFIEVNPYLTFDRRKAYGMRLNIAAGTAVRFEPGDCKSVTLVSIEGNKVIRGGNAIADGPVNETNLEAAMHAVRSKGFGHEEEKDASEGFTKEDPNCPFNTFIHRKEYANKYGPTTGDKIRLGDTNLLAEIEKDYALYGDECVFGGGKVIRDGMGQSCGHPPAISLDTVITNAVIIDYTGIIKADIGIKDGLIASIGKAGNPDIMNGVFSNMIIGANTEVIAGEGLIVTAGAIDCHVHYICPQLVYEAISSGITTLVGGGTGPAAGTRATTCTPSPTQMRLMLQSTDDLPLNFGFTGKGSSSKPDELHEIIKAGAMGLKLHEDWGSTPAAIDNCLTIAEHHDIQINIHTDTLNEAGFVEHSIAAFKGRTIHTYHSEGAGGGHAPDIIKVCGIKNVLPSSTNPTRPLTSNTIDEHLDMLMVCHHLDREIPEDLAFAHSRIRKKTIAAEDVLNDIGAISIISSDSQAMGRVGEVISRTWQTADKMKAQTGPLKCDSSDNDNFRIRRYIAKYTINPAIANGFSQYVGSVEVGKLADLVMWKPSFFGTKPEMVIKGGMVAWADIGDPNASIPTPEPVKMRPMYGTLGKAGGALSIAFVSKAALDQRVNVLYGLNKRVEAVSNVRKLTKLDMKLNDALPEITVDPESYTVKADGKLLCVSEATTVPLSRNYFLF

Going from `COc1ccc(/C=N/c2cc(Cl)cc(Cl)c2)cc1` [ASB2] to `COc1ccc(/C=N/N=C/c2ccc(OC)cc2)cc1` [ASB1], the IC50 falls from 184 µM to 38.4 µM (4.8-fold). The second is the more potent here.

With `NC(N)=S` [Thiourea, reference compound] the IC50 was 65.3 µM.
